Laboratory results taken from US9701664B2, “Fused 1,4-dihydrodioxin derivatives as inhibitors of heat shock transcription factor 1” (Cancer Research Technology Limited, priority 2013, dated 2017).
Where a name gives a salt, the structure may show the parent alone.

Columns and labels:
HSP72 in U2OS cells = assay: Cell-based ELISA (Cellisa) assay, U2OS cells: inhibition of 17-AAG-induced HSP72; settings: Homo sapiens; U2OS cells (Examples 1-168)
Method: U2OS cells (5-8×10^4 cells/mL) or SK-OV-3 cells (5-8×10^4 cells/mL) were seeded into 96-well plates and incubated at 37° C. for 48 h. Compounds were then added at a range of concentrations and incubated for 1 h before addition of 17-AAG (250 nM). Cells were then incubated for 18 h. The medium was removed washed 2× with PBS and cells were then fixed with fixing solution (4% paraformaldehyde, 0.3% TritonX-100 in PBS) for 30 min at 4° C. The plates were then washed 2× with PBS before blocking with 5% milk for 30 min at 37° C. After washing the plates 4× with 0.1% Tween-20/deionised water, HSP72 antibody (SPA-810, Enzo Life) was added for 1.5 h at 37° C. Following 4× washes, the plates were incubated with europium-labelled anti-mouse antibody (0.6 ug/ml) in Delfia assay buffer (Perkin Elmer) for 1 h at 37° C. After washing the plates, Delfia enhancement solution was added, shaken for 10 min before reading in the Envision plate reader (Perkin-Elmer) with excitation at 340 nm and emission at 615 nm. The plates were washed again before protein determination using the bicinchoninic acid assay (BCA assay, Pierce Biotechnology). The europium counts were normalised for the amount of protein in each well. The 50% inhibitory concentration value of the compound was then calculated.

U2OS cells = assay: Titre Blue cell viability assay, U2OS cells; type: cell-based; settings: Homo sapiens, U2OS

Row | Structure (SMILES) | IC50 (HSP72 in U2OS cells) [nM] | IC50 (U2OS cells) [nM]
1 | Cc1ccc(NC(=O)c2ccc3c(c2)OCCO3)cc1NC(=O)c1ccc2nc(OCCN3CCCCC3)ccc2c1 [Example 54, N-(5-(2,3-dihydrobenzo[b][1,4]dioxine-6-carboxamido)-2-methylphenyl)-2-(2-(piperidin-1-yl)ethoxy)quinoline-6-carboxamide] | 10 | 7
2 | CNc1ccc2cc(C(=O)Nc3cc(NC(=O)c4ccc5c(c4)OCCO5)ccc3C)ccc2n1 [Example 79, N-(5-(2,3-dihydrobenzo[b][1,4]dioxine-6-carboxamido)-2-methylphenyl)-2-(methylamino)quinoline-6-carboxamide] | 70 | 54
3 | Cc1ccc(NC(=O)c2ccc3c(c2)OCCO3)cc1NC(=O)c1ccc2nc(OCCCN3CCOCC3)ccc2c1 [Example 55, N-(5-(2,3-dihydrobenzo[b][1,4]dioxine-6-carboxamido)-2-methylphenyl)-2-(3-morpholinopropoxy)quinoline-6-carboxamide] | 13 | 20
4 | Cc1ccc(NC(=O)c2ccc3c(c2)OCCO3)cc1NC(=O)c1ccc2nc(OCCN3CCC(F)(F)CC3)ccc2c1 [Example 72, 2-(2-(4,4-difluoropiperidin-1-yl)ethoxy)-N-(5-(2,3-dihydrobenzo[b][1,4]dioxine-6-carboxamido)-2-methylphenyl)quinoline-6-carboxamide] | 105 | 60
5 | CNCCCOc1ccc2cc(C(=O)Nc3cc(NC(=O)c4ccc5c(c4)OCCO5)ccc3C)ccc2n1 [Example 76, N-(5-(2,3-dihydrobenzo[b][1,4]dioxine-6-carboxamido)-2-methylphenyl)-2-(3-(methylamino)propoxy)quinoline-6-carboxamide] | 21 | 10
6 | Cc1cc(NCCN(C)C)c2cc(C(=O)Nc3cc(NC(=O)c4ccc5c(c4)OCCO5)ccc3C)ccc2n1 [Example 110, N-(5-(2,3-dihydrobenzo[b][1,4]dioxine-6-carboxamido)-2-methylphenyl)-4-(2-(dimethylamino)ethylamino)-2-methylquinoline-6-carboxamide] | 410 | 168
7 | Cc1ccc(NC(=O)c2ccc3c(c2)OCCO3)cc1NC(=O)c1ccc2nc(OCCN3CCCC(F)C3)ccc2c1 (centres unmarked) [Example 57, N-(5-(2,3-dihydrobenzo[b][1,4]dioxine-6-carboxamido)-2-methylphenyl)-2-(2-(3-fluoropiperidin-1-yl)ethoxy)quinoline-6-carboxamide] | 37 | 31
8 | Cc1ccc(NC(=O)c2ccc3c(c2)OCCO3)cc1NC(=O)c1cnc2ncccc2c1 [Example 45, N-(5-(2,3-dihydrobenzo[b][1,4]dioxine-6-carboxamido)-2-methylphenyl)-1,8-naphthyridine-3-carboxamide] | 36 | 85
9 | Cc1ccc(NC(=O)c2ccc3c(c2)OCCO3)cc1NC(=O)c1ccc2nc(CCN(C)C)ccc2c1 [Example 69, N-(5-(2,3-dihydrobenzo[b][1,4]dioxine-6-carboxamido)-2-methylphenyl)-2-(2-(dimethylamino)ethyl)quinoline-6-carboxamide] | 57 | 305
10 | CCc1ccc(NC(=O)c2ccc3c(c2)OCCO3)cc1NC(=O)c1ccc2ncccc2c1 [Example 133, N-(5-(2,3-dihydrobenzo[b][1,4]dioxine-6-carboxamido)-2-ethylphenyl)quinoline-6-carboxamide] | 127 | 111
11 | C=CCc1cccc2ncc(C(=O)Nc3cc(NC(=O)c4ccc5c(c4)OCCO5)ccc3C)cc12 [Example 161, 5-allyl-N-(5-(2,3-dihydrobenzo[b][1,4]dioxine-6-carboxamido)-2-methylphenyl)quinoline-3-carboxamide] | 911 | 557
12 | Cc1ccc(NC(=O)c2ccc3c(c2)OCCO3)cc1NC(=O)c1cnc2c(c1)CCCC2 [Example 141, N-(5-(2,3-dihydrobenzo[b][1,4]dioxine-6-carboxamido)-2-methylphenyl)-5,6,7,8-tetrahydroquinoline-3-carboxamide] | 32 | 44
13 | Cc1ccc(NC(=O)c2ccc3c(c2)OCCO3)cc1NC(=O)c1cnc2cccc(NCCN3CCCC3)c2c1 [Example 148, N-(5-(2,3-dihydrobenzo[b][1,4]dioxine-6-carboxamido)-2-methylphenyl)-5-((2-(pyrrolidin-1-yl)ethyl)amino)quinoline-3-carboxamide] | 88 | 104
14 | Cc1ccc(NC(=O)c2ccc3c(c2)OCCO3)cc1NC(=O)c1ccc2nc(COC(C)C)ccc2c1 [Example 145, N-(5-(2,3-dihydrobenzo[b][1,4]dioxine-6-carboxamido)-2-methylphenyl)-2-(isopropoxymethyl)quinoline-6-carboxamide] | 64 | 17
15 | Cc1ccc(NC(=O)c2ccc3c(c2)OCCO3)cc1NC(=O)c1ccc2c(c1)CCCC2 [Example 34, N-(4-methyl-3-(5,6,7,8-tetrahydronaphthalene-2-carboxamido)phenyl)-2,3-dihydrobenzo[b][1,4]dioxine-6-carboxamide] | 850 | 413
16 | Cc1ccc(NC(=O)c2ccc3c(c2)OCCO3)cc1NC(=O)c1ccc2cnccc2c1 [Example 46, N-(5-(2,3-dihydrobenzo[b][1,4]dioxine-6-carboxamido)-2-methylphenyl)isoquinoline-6-carboxamide] | 4 | 12
17 | Cc1ccc(NC(=O)c2cnc3c(c2)OCCO3)cc1NC(=O)c1ccc2nc(OCCN3CCCC3)ccc2c1 [Example 134, N-(4-methyl-3-(2-(2-(pyrrolidin-1-yl)ethoxy)quinoline-6-carboxamido)phenyl)-2,3-dihydro-[1,4]dioxino[2,3-b]pyridine-7-carboxamide] | 51 | 49
18 | Cc1ccc(NC(=O)c2ccc3c(c2)OCCO3)cc1NC(=O)c1ccc2nc(N(C)CCN3CCCC3)ccc2c1 [Example 64, N-(5-(2,3-dihydrobenzo[b][1,4]dioxine-6-carboxamido)-2-methylphenyl)-2-(methyl(2-(pyrrolidin-1-yl)ethyl)amino)quinoline-6-carboxamide] | 25 | 32
19 | Cc1ccc(NC(=O)c2ccc3c(c2)OCCO3)cc1NC(=O)c1ccc2nccnc2c1 [Example 36, N-(5-(2,3-dihydrobenzo[b][1,4]dioxine-6-carboxamido)-2-methylphenyl)quinoxaline-6-carboxamide] | 1150 | 567
20 | Cc1ccc(NC(=O)c2ccc3c(c2)OCCO3)cc1NC(=O)c1cnc2cccc(CCN3CCCC3)c2c1 [Example 158, N-(5-(2,3-dihydrobenzo[b][1,4]dioxine-6-carboxamido)-2-methylphenyl)-5-(2-(pyrrolidin-1-yl)ethyl)quinoline-3-carboxamide] | 239 | 202
21 | Cc1ccc(NC(=O)c2ccc3c(c2)OCCO3)cc1NC(=O)c1ccc2nccc(C#N)c2c1 [Example 24, 4-cyano-N-(5-(2,3-dihydrobenzo[b][1,4]dioxine-6-carboxamido)-2-methylphenyl)quinoline-6-carboxamide] | 174 | 169
22 | Cc1ccc(NC(=O)c2ccc3c(c2)OCCO3)cc1NC(=O)c1ccc2nc(N)sc2c1 [Example 91, 2-amino-N-(5-(2,3-dihydrobenzo[b][1,4]dioxine-6-carboxamido)-2-methylphenyl)benzo[d]thiazole-6-carboxamide] | 70 | 115
23 | Cc1ccc(NC(=O)c2ccc3c(c2)OCCO3)cc1NC(=O)c1ccc2nc(CN3CCCC3)ccc2c1 [Example 67, N-(5-(2,3-dihydrobenzo[b][1,4]dioxine-6-carboxamido)-2-methylphenyl)-2-(pyrrolidin-1-ylmethyl)quinoline-6-carboxamide formate] | 35 | 33
24 | COc1cc(C(=O)Nc2cc(NC(=O)c3ccc4c(c3)OCCO4)ccc2C)cc2sc(N)nc12 [Example 95, 2-amino-N-(5-(2,3-dihydrobenzo[b][1,4]dioxine-6-carboxamido)-2-methylphenyl)-4-methoxybenzo[d]thiazole-6-carboxamide] | 89 | 156
25 | Cc1ccc(NC(=O)c2ccc3c(c2)OCCO3)cc1NC(=O)c1ccc2c(c1)CCN2C [Example 7, N-(5-(2,3-dihydrobenzo[b][1,4]dioxine-6-carboxamido)-2-methylphenyl)-1-methylindoline-5-carboxamide] | 55 | 37
26 | Cc1ccc(NC(=O)c2ccc3c(c2)OCCO3)cc1NC(=O)c1ccc2[nH]ncc2c1 [Example 97, N-(5-(2,3-dihydrobenzo[b][1,4]dioxine-6-carboxamido)-2-methylphenyl)-1H-indazole-5-carboxamide] | 59 | 32
27 | Cc1ccc(NC(=O)c2ccc3c(c2)OCCO3)cc1NC(=O)c1ccc2nc(OC3CCN(C)CC3)ccc2c1 [Example 50, N-(5-(2,3-dihydrobenzo[b][1,4]dioxine-6-carboxamido)-2-methylphenyl)-2-((1-methylpiperidin-4-yl)oxy)quinoline-6-carboxamide] | 3 | 10
28 | COc1ccc(C(=O)Nc2cc(NC(=O)c3ccc4c(c3)OCCO4)ccc2C)cc1OC [Example 5, N-(3-(3,4-dimethoxybenzamido)-4-methylphenyl)-2,3-dihydrobenzo[b][1,4]dioxine-6-carboxamide] | 53 | 47
